Results taken from PubChem BioAssay AID230 (DTP/NCI, 2004).
“And” between values parts separate entries of the source, which are not always exact repeats. Identical values can stand only once. Toxic doses and inconclusive results are not listed.

System: C3H/He mice, Gardner lymphosarcoma 6C3HED ip, survival T/C
Assay: NCI In Vivo Anticancer Drug Screen. Data for tumor model Lymphosarcoma Gardner 6C3HED (intraperitoneal) in C3H/He mice
Details: higher = longer survival
Procedure: The antitumor activity of compounds was measured in mice bearing transplantable tumors. Survival or tumor size were measured and the results are expressed as the measurement made in the treated group (T) divided by the measurement made in the vehicle treated control group (C). The tumor model used in this assay is Lymphosarcoma Gardner 6C3HED (intraperitoneal) in C3H/He mice

[1] = endpoint: median survival time, dose: 12.5 mg/kg/injection, schedule: Q01DX003 (ip), vehicle: saline
[2] = endpoint: median survival time, dose: 12.5 mg/kg/injection, schedule: Q12HX006 (ip), vehicle: saline
[3] = endpoint: median survival time, dose: 25.0 mg/kg/injection, schedule: Q01DX003 (ip), vehicle: saline
[4] = endpoint: median survival time, dose: 25.0 mg/kg/injection, schedule: Q12HX006 (ip), vehicle: saline
[5] = endpoint: median survival time, dose: 50.0 mg/kg/injection, schedule: Q01DX003 (ip), vehicle: saline
[6] = endpoint: median survival time, dose: 50.0 mg/kg/injection, schedule: Q12HX006 (ip), vehicle: saline
[7] = endpoint: survival time, mean or median, dose: 62.5 mg/kg/injection, schedule: Q01DX010 (ip), vehicle: saline
[8] = endpoint: survival time, mean or median, dose: 50.0 mg/kg/injection, schedule: Q01DX010 (ip), vehicle: saline
[9] = endpoint: survival time, mean or median, dose: 16.0 mg/kg/injection, schedule: Q01DX010 (ip), vehicle: saline
[10] = endpoint: survival time, mean or median, dose: 32.0 mg/kg/injection, schedule: Q01DX010 (ip), vehicle: saline
[11] = endpoint: survival time, mean or median, dose: 20.0 mg/kg/injection, schedule: Q01DX010 (ip), vehicle: saline
[12] = endpoint: survival time, mean or median, dose: 40.0 mg/kg/injection, schedule: Q01DX010 (ip), vehicle: saline

O=c1[nH]cnc2c1ncn2C1OC(CO)C(O)C1O (centres undefined)
T/C [1]: 90 % of control | T/C [2]: 101 % of control | T/C [3]: 95 % of control | T/C [4]: 104 % of control | T/C [5]: 100 % of control | T/C [6]: 106 % of control

CCN(CCNc1ccc(C)c2sc3cc(Cl)ccc3c(=O)c12)CC(C)O (centres undefined)
T/C (endpoint: survival time, mean or median, dose: 7.8 mg/kg/injection, schedule: Q01DX010 (ip), vehicle: saline): 110 % of control | T/C (endpoint: survival time, mean or median, dose: 15.6 mg/kg/injection, schedule: Q01DX010 (ip), vehicle: saline): 100 % of control | T/C (endpoint: survival time, mean or median, dose: 31.3 mg/kg/injection, schedule: Q01DX010 (ip), vehicle: saline): 100 % of control | T/C [7]: 88 % of control and 96 % of control

Nc1nc([Se])c2ncn(C3OC(CO)C(O)C3O)c2n1 (centres undefined)
T/C (endpoint: median survival time, dose: 1.0 mg/kg/injection, schedule: Q01DX009 (ip), vehicle: saline): 98 % of control | T/C (endpoint: median survival time, dose: 2.0 mg/kg/injection, schedule: Q01DX009 (ip), vehicle: saline): 103 % of control | T/C (endpoint: median survival time, dose: 4.0 mg/kg/injection, schedule: Q01DX009 (ip), vehicle: saline): 114 % of control | T/C (endpoint: median survival time, dose: 8.0 mg/kg/injection, schedule: Q01DX009 (ip), vehicle: saline): 107 % of control | T/C (endpoint: median survival time, dose: 16.0 mg/kg/injection, schedule: Q01DX009 (ip), vehicle: saline): 99 % of control

CSc1ncnc2nc[nH]c12
T/C (endpoint: survival time, mean or median, dose: 25.0 mg/kg/injection, schedule: Q01DX010 (ip), vehicle: saline): 100 % of control | T/C [8]: 93 % of control and 100 % of control | T/C (endpoint: survival time, mean or median, dose: 100.0 mg/kg/injection, schedule: Q01DX010 (ip), vehicle: saline): 93 % of control and 100 % of control | T/C (endpoint: survival time, mean or median, dose: 200.0 mg/kg/injection, schedule: Q01DX010 (ip), vehicle: saline): 93 % of control and 103 % of control

CCCCNc1ncnc2c1cnn2C
T/C (endpoint: survival time, mean or median, dose: 4.0 mg/kg/injection, schedule: Q01DX010 (ip), vehicle: saline): 90 % of control and 100 % of control | T/C (endpoint: survival time, mean or median, dose: 8.0 mg/kg/injection, schedule: Q01DX010 (ip), vehicle: saline): 95 % of control and 100 % of control | T/C [9]: 90 % of control and 100 % of control | T/C [10]: 90 % of control and 100 % of control

Cn1cnc([N+](=O)[O-])c1Sc1ncnc2nc[nH]c12
T/C (endpoint: survival time, mean or median, dose: 10.0 mg/kg/injection, schedule: Q01DX010 (ip), vehicle: saline): 86 % of control | T/C [11]: 93 % of control | T/C [12]: 86 % of control | T/C (endpoint: survival time, mean or median, dose: 80.0 mg/kg/injection, schedule: Q01DX010 (ip), vehicle: saline): 86 % of control

CN(C)c1ccc(/C=C/c2ccnc3ccccc23)cc1
T/C [9]: 90 % of control | T/C [10]: 93 % of control

O=CN(O)CC(=O)O
T/C [7]: 96 % of control | T/C (endpoint: survival time, mean or median, dose: 125.0 mg/kg/injection, schedule: Q01DX010 (ip), vehicle: saline): 89 % of control | T/C (endpoint: survival time, mean or median, dose: 250.0 mg/kg/injection, schedule: Q01DX010 (ip), vehicle: saline): 107 % of control | T/C (endpoint: survival time, mean or median, dose: 500.0 mg/kg/injection, schedule: Q01DX010 (ip), vehicle: saline): 100 % of control

Nc1ncnc2c1ncn2C1OC(CO)C(O)C1O (centres undefined)
T/C [1]: 90 % of control | T/C (endpoint: median survival time, dose: 12.5 mg/kg/injection, schedule: Q11DX018 (ip), vehicle: saline with Tween-80): 96 % of control | T/C [2]: 108 % of control | T/C [3]: 95 % of control | T/C [4]: 112 % of control | T/C [5]: 100 % of control | T/C [6]: 120 % of control

CO[C@@H]1[C@@H](OC2OC(C)C(OC3CC(C)(O)C(OC(=O)CC(C)C)C(C)O3)C(N(C)C)C2O)[C@@H](CC=O)C[C@@H](C)C(=O)/C=C/C2O[C@H]2C[C@@H](C)OC(=O)C[C@H]1OC(C)=O (some centres undefined)
T/C (endpoint: survival time, mean or median, dose: 18.8 mg/kg/injection, schedule: Q01DX010 (ip), vehicle: saline): 94 % of control | T/C (endpoint: survival time, mean or median, dose: 37.5 mg/kg/injection, schedule: Q01DX010 (ip), vehicle: saline): 102 % of control

CS(=O)(=O)OCCC(=O)N1CCN(C(=O)CCOS(C)(=O)=O)CC1
T/C [8]: 207 % of control and 267 % of control

O=c1[nH]cc(F)c(=O)[nH]1
T/C (endpoint: median survival time, dose: 13.3 mg/kg/injection, schedule: Q01DX009 (ip), vehicle: saline): 222 % of control | T/C (endpoint: median survival time, dose: 20.0 mg/kg/injection, schedule: Q01DX009 (ip), vehicle: saline): 222 % of control | T/C (endpoint: median survival time, dose: 27.0 mg/kg/injection, schedule: Q01DX009 (ip), vehicle: saline): 203 % of control | T/C (endpoint: survival time, mean or median, dose: 5.0 mg/kg/injection, schedule: Q01DX010 (ip), vehicle: saline): 110 % of control | T/C [11]: 283 % of control | T/C [12]: 203 % of control
